{"source": "patent US20220409614A1", "about": "“TREATING BEHAVIORAL AND PSYCHOLOGICAL SYMPTOMS IN DEMENTIA PATIENTS” (SUVEN LIFE SCIENCES LIMITED, priority 2019, published 2022)", "key": {"[1]": {"tested_on": "subjects with moderate AD", "test": "Phase 2 study in moderate AD, NPI-12 (Neuropsychiatric Inventory) assessment", "type": "in vivo, humans", "conditions": "for effect on NPI domains as measured by the NPI-12 scale: overall statement", "source_text": "The study consisted of a 2 to 4-week screening period, followed by a 26-week double-blind treatment period and a 4-week single-blind placebo washout period. […] Population: The study population included male or female subjects, 50 to 85 years of age, with moderate dementia due to probable AD (MMSE 12-20, both inclusive) based on the National Institute of Neurological and Communicative Diseases and Stroke/Alzheimer's Disease and Related Disorders Association ([…]) criteria, diagnosed at least 1 year prior to the study and receiving stable doses for at least 3 months of donepezil HCl (10 mg qd) and either memantine HCl (10 mg bid) or […]® (28 mg memantine HCl extended-release qd) or the combination therapy, NamzaricTM (28 mg memantine HCl extended-release/10 mg donepezil HCl) qd. […] Throughout the study, all subjects continued to receive donepezil HCl (10 mg qd) and memantine HCl (10 mg bid) or […]® (28 mg memantine HCl extended-release qd) or the combination therapy, NamzaricTM (28 mg memantine HCl extended-release/10 mg donepezil HCl) qd. […] During the washout period, all subjects were received placebo in addition to donepezil HCl and memantine HCl. The NPI is a 12-item structured interview with a caregiver designed to assess behavioral disturbances in patients with dementia. The NPI comprises 10 behavioral (hallucinations, delusions, agitation/aggression, dysphoria/depression, anxiety, irritability, disinhibition, euphoria/elation, apathy and aberrant motor behavior), and neurovegetative items (sleep and night-time behavior change, appetite and eating change). The behavioral domains are assessed in terms of frequency, severity and distress. Each item consists of a screening question and several sub-questions which are rated no (not present) or yes (present). Each item is then rated for frequency (a 4-point scale from 1 [occasionally] to 4 [very frequently]), severity (a 3-point scale from 1 [mild] to 3 [marked]), and caregiver distress (a 6-point scale from 0 [not at all] to 5 [very severely or extremely]). The total score 12 items of the frequency and severity ratings range from 0 to 144 and the total score 12 items of caregiver distress ranges from 0 to 60. The NPI was administered to the subject's caregiver and scored by a qualified, trained rater at baseline and Weeks 4, 13 and 26. Data was analyzed using a mixed effects model for repeated measures (MMRM). The model included fixed categorical factors for treatment, week, treatment-by-week interaction, and APO-E status (carrier-one allele, carrier-two alleles, and non-carrier), as well as a continuous covariate of baseline score, the baseline score-by-week interaction, age, and baseline MMSE score. In subgroup analysis, stratification was based on the baseline symptoms and/or symptom emergence."}, "[2]": {"tested_on": "subjects with moderate AD", "test": "Phase 2 study in moderate AD, ADAS-Cog 11 assessment", "type": "in vivo, humans", "conditions": "for change from baseline in ADAScog-11 scores vs placebo: 50 mg", "source_text": "The study consisted of a 2 to 4-week screening period, followed by a 26-week double-blind treatment period and a 4-week single-blind placebo washout period. […] Population: The study population included male or female subjects, 50 to 85 years of age, with moderate dementia due to probable AD (MMSE 12-20, both inclusive) based on the National Institute of Neurological and Communicative Diseases and Stroke/Alzheimer's Disease and Related Disorders Association ([…]) criteria, diagnosed at least 1 year prior to the study and receiving stable doses for at least 3 months of donepezil HCl (10 mg qd) and either memantine HCl (10 mg bid) or […]® (28 mg memantine HCl extended-release qd) or the combination therapy, NamzaricTM (28 mg memantine HCl extended-release/10 mg donepezil HCl) qd. […] Throughout the study, all subjects continued to receive donepezil HCl (10 mg qd) and memantine HCl (10 mg bid) or […]® (28 mg memantine HCl extended-release qd) or the combination therapy, NamzaricTM (28 mg memantine HCl extended-release/10 mg donepezil HCl) qd. […] During the washout period, all subjects were received placebo in addition to donepezil HCl and memantine HCl. The Alzheimer's Disease Assessment Scale-Cognitive Subscale (ADAS-Cog) was developed to assess the level of cognitive dysfunction in AD. It is also used for assessing the efficacy of anti-dementia treatments. The ADAScog-11 is a brief measure of cognition, including word recall, commands, constructional praxis, naming objects and fingers, ideational praxis, orientation, word recognition task, remembering test instructions, spoken language ability, word-finding difficulty, and comprehension of spoken language. The test is scored by an administrator who adds up points for the errors in each task for a total score ranging from 0 to 70. The greater the dysfunction, the greater the score. A score of 70 represents the most severe impairment. Data was analyzed using a mixed effects model for repeated measures (MMRM). The model included fixed categorical factors for treatment, week, treatment-by-week interaction, and APO-E status (carrier-one allele, carrier-two alleles, and non-carrier), as well as a continuous covariate of baseline score, the baseline score-by-week interaction, age, and baseline MMSE score. In subgroup analysis, stratification was based on the baseline symptoms and/or symptom emergence."}, "[3]": {"tested_on": "subjects with moderate AD", "test": "Phase 2 study in moderate AD, safety and tolerability assessment", "set-up": "species or system humans", "conditions": "in vivo", "method": "The study consisted of a 2 to 4-week screening period, followed by a 26-week double-blind treatment period and a 4-week single-blind placebo washout period.\nThroughout the study, all subjects continued to receive donepezil HCl (10 mg qd) and memantine HCl (10 mg bid) or Namenda XR® (28 mg memantine HCl extended-release qd) or the combination therapy, Namzaric™ (28 mg memantine HCl extended-release/10 mg donepezil HCl) qd.\nThe safety assessed by monitoring adverse events, physical examinations, vital signs, clinical laboratory tests and electrocardiograms."}, "[4]": {"conditions": "baseline domain score ≥1, mITT, 50 mg, Week 4"}, "[5]": {"conditions": "baseline domain score ≥1, mITT, 50 mg, Week 13"}, "[6]": {"conditions": "baseline domain score ≥1, mITT, 50 mg, Week 26"}, "[7]": {"conditions": "baseline domain score ≥1, mITT, 100 mg, Week 4"}, "[8]": {"conditions": "baseline domain score ≥1, mITT, 100 mg, Week 13"}, "[9]": {"conditions": "baseline domain score ≥1, mITT, 100 mg, Week 26"}}}
{"smiles": "COc1ccc2c(c1)c(CN1CCN(C)CC1)cn2S(=O)(=O)c1ccccc1Br", "note": "[masupirdine, 1-[(2-bromophenyl)sulfonyl]-5-methoxy-3-[(4-methyl-1-piperazinyl)methyl]-1H-indole]", "values": [{"measurement": "change from baseline in mean NPI-12 scores vs placebo", "setting": "[1]; 50 mg, Week 4", "value": "statistically significant treatment differences"}, {"measurement": "change from baseline in mean agitation/aggression domain scores of NPI-12 vs placebo", "setting": "[1]; 50 mg, Week 26, no subgroup", "value": "statistically significant treatment difference"}, {"measurement": "mean NPI-12 scores", "setting": "[1]; Week 13, all 3 treatment arms", "value": "remained similar to baseline"}, {"measurement": "mean NPI-12 scores", "setting": "[1]; Week 26, masupirdine dose groups", "value": "remained similar to baseline"}, {"measurement": "change from baseline in NPI-12 domain sleep and nighttime behavior vs placebo", "setting": "[1]; baseline domain score ≥1, 50 mg, Week 26", "value": "statistically significant treatment differences"}, {"measurement": "change from baseline in NPI-12 domain sleep and nighttime behavior vs placebo", "setting": "[1]; baseline domain score ≥1, 100 mg, Week 13", "value": "statistically significant treatment difference"}, {"measurement": "change from baseline in NPI-12 domain sleep and nighttime behavior vs placebo", "setting": "[1]; baseline domain score ≥1, 100 mg, Week 26", "value": "statistically significant treatment differences"}, {"measurement": "change from baseline in NPI-12 domain aberrant motor behavior vs placebo", "setting": "[1]; [4]", "value": "statistically significant treatment differences"}, {"measurement": "change from baseline in NPI-12 domain delusions and/or hallucinations vs placebo", "setting": "[1]; [4]", "value": "statistically significant treatment difference"}, {"measurement": "change from baseline in NPI-12 domain sleep and nighttime behavior vs placebo", "setting": "[1]; [4]", "value": "statistically significant treatment difference"}, {"measurement": "change from baseline in mean euphoria/elation scores vs placebo", "setting": "[1]; [4]", "value": "statistically significant treatment differences"}, {"measurement": "extended composite NPI-12 score domain (agitation/aggression, aberrant motor behavior and sleep and nighttime behavior disorders) vs placebo", "setting": "[1]; [4]", "value": "statistically significant treatment differences"}, {"measurement": "change from baseline in NPI-12 domain aberrant motor behavior vs placebo", "setting": "[1]; [5]", "value": "statistically significant treatment difference"}, {"measurement": "change from baseline in NPI-12 domain delusions and/or hallucinations vs placebo", "setting": "[1]; [5]", "value": "statistically significant treatment difference"}, {"measurement": "change from baseline in mean agitation/aggression scores vs placebo", "setting": "[1]; [5]", "value": "statistically significant treatment difference"}, {"measurement": "change from baseline in mean euphoria/elation scores vs placebo", "setting": "[1]; [5]", "value": "statistically significant treatment differences"}, {"measurement": "change from baseline in mean agitation/aggression scores vs placebo", "setting": "[1]; [6]", "value": "statistically significant treatment difference"}, {"measurement": "change from baseline in mean euphoria/elation scores vs placebo", "setting": "[1]; [6]", "value": "statistically significant treatment differences"}, {"measurement": "extended composite NPI-12 score domain (agitation/aggression, aberrant motor behavior and sleep and nighttime behavior disorders) vs placebo", "setting": "[1]; [6]", "value": "statistically significant treatment differences"}, {"measurement": "change from baseline in NPI-12 domain delusions and/or hallucinations vs placebo", "setting": "[1]; [7]", "value": "statistically significant treatment difference"}, {"measurement": "change from baseline in NPI-12 domain sleep and nighttime behavior vs placebo", "setting": "[1]; [7]", "value": "statistically significant treatment difference"}, {"measurement": "change from baseline in mean agitation/aggression scores vs placebo", "setting": "[1]; [8]", "value": "statistically significant treatment difference"}, {"measurement": "extended composite NPI-12 score domain (agitation/aggression, aberrant motor behavior and sleep and nighttime behavior disorders) vs placebo", "setting": "[1]; [8]", "value": "statistically significant treatment differences"}, {"measurement": "change from baseline in NPI-12 domain disinhibition vs placebo", "setting": "[1]; [9]", "value": "statistically significant treatment difference"}, {"measurement": "extended composite NPI-12 score domain (agitation/aggression, aberrant motor behavior and sleep and nighttime behavior disorders) vs placebo", "setting": "[1]; [9]", "value": "statistically significant treatment differences"}, {"measurement": "change from baseline in mean agitation/aggression scores vs placebo", "setting": "[1]; baseline domain score ≥1, mITT, treatment and time added as covariates", "value": "statistically significant treatment differences"}, {"measurement": "extended composite NPI-12 score domain (agitation/aggression, aberrant motor behavior and sleep and nighttime behavior disorders) vs placebo", "setting": "[1]; baseline domain score ≥1, treatment added as covariate, 50 mg", "value": "statistically significant treatment difference"}, {"measurement": "change from baseline in NPI-12 domain sleep and nighttime behavior vs placebo", "setting": "[1]; baseline domain score ≥1, treatment added as covariate, 50 mg, Week 26", "value": "statistically significant treatment difference"}, {"measurement": "change from baseline in NPI-12 domain delusions and/or hallucinations vs placebo", "setting": "[1]; baseline domain score ≥1, treatment added as covariate, 100 mg", "value": "statistically significant treatment difference"}, {"measurement": "change from baseline in NPI-12 domain sleep and nighttime behavior vs placebo", "setting": "[1]; baseline domain score ≥1, treatment added as covariate, 100 mg, Week 26", "value": "statistically significant treatment difference"}, {"measurement": "change from baseline in NPI-12 domain delusions and/or hallucinations vs placebo", "setting": "[1]; baseline domain score ≥1, treatment and time added as covariates", "value": "statistically significant treatment differences"}, {"measurement": "change from baseline in mean agitation/aggression scores vs placebo", "setting": "[1]; baseline domain score ≥3, mITT, 50 mg, Week 13", "value": "statistically significant treatment difference"}, {"measurement": "change from baseline in mean agitation/aggression scores vs placebo", "setting": "[1]; baseline domain score ≥3, mITT, 50 mg, Week 26", "value": "statistically significant treatment difference"}, {"measurement": "change from baseline in mean agitation/aggression scores vs placebo", "setting": "[1]; baseline domain score ≥3, mITT, 100 mg, Week 13", "value": "statistically significant treatment difference"}, {"measurement": "change from baseline in mean agitation/aggression scores vs placebo", "setting": "[1]; baseline domain score ≥3, treatment added as covariate, 50 mg, Week 26", "value": "statistically significant treatment difference"}, {"measurement": "change from baseline in mean agitation/aggression scores vs placebo", "setting": "[1]; baseline domain score ≥3, treatment and time added as covariates", "value": "statistically significant treatment differences"}, {"measurement": "effect on NPI domains as measured by the NPI-12 scale", "setting": "[1]", "value": "beneficial effects"}, {"measurement": "effect on NPI domains as measured by the NPI-12 scale", "setting": "[1]; listed as Masupirdine", "value": "significant treatment effect"}, {"measurement": "behavioral and psychological symptoms as assessed by NPI-12 subscale scores", "setting": "[1]; subgroup analyses", "value": "significant improvement"}, {"measurement": "change from baseline in ADAScog-11 scores vs placebo", "setting": "[2]; baseline delusion and/or hallucination score ≥1, mITT, Week 26", "value": "statistically significant treatment difference"}, {"measurement": "change from baseline in ADAScog-11 scores vs placebo", "setting": "[2]; baseline delusion and/or hallucination score ≥1, treatment added as covariate", "value": "statistically significant treatment difference"}, {"measurement": "change from baseline in ADAScog-11 scores vs placebo", "setting": "[2]; baseline delusion and/or hallucination score ≥1, treatment and time added as covariates", "value": "statistically significant treatment differences"}, {"measurement": "cognition as assessed by ADAS-Cog 11 scale", "setting": "[2]; subjects with delusions and hallucinations (baseline symptoms)", "value": "significantly improved cognition"}, {"measurement": "change from baseline at Week 26 in ADAS-Cog 11 score (primary efficacy endpoint)", "setting": "[2]; vs placebo, whole study population", "value": "did not show significant treatment advantage in cognition over placebo"}, {"measurement": "safety and tolerability", "setting": "[3]", "value": "safe and well tolerated with no significant adverse events"}]}
